Laboratory results published in PubChem BioAssay AID330 (DTP/NCI, 2004).
“And” between values parts separate entries of the source, which are not always exact repeats. Equal entries are not always repeated. Toxic doses and inconclusive results are not listed. The calls were made as follows: active = survival T/C of 150% or more; inactive = T/C below 125% in these data.

System: P388 leukemia ip, CD2F1 mice, survival T/C
Assay: NCI In Vivo Anticancer Drug Screen. Data for tumor model P388 Leukemia (intraperitoneal) in CD2F1 (CDF1) mice
Settings: endpoint: median survival time, higher = longer survival
Summary of the method: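 Mice carrying the transplanted tumor received test compound or vehicle. Survival was recorded in each group, and the value is the treated-group measurement divided by that of the vehicle-treated control group.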

[1] = dose: 25.0 mg/kg/injection, schedule: Q01DX009 (ip), vehicle: saline with Tween-80
[2] = dose: 50.0 mg/kg/injection, schedule: Q01DX009 (ip), vehicle: saline with Tween-80
[3] = dose: 50.0 mg/kg/injection, schedule: Q01DX005 (ip), vehicle: saline with Tween-80
[4] = dose: 100.0 mg/kg/injection, schedule: Q01DX005 (ip), vehicle: saline with Tween-80
[5] = dose: 200.0 mg/kg/injection, schedule: Q01DX005 (ip), vehicle: saline with Tween-80
[6] = dose: 60.0 mg/kg/injection, schedule: Q01DX005 (ip), vehicle: saline with Tween-80
[7] = dose: 120.0 mg/kg/injection, schedule: Q01DX005 (ip), vehicle: saline with Tween-80
[8] = dose: 240.0 mg/kg/injection, schedule: Q01DX005 (ip), vehicle: saline with Tween-80
[9] = dose: 100.0 mg/kg/injection, schedule: Q01DX009 (ip), vehicle: saline with Tween-80
[10] = dose: 200.0 mg/kg/injection, schedule: Q01DX009 (ip), vehicle: saline with Tween-80

Measured: T/C

O=c1oc(-c2ccc(Cl)cc2)nc2cc(Cl)ccc12
inactive: dose: 6.25 mg/kg/injection, schedule: Q01DX009 (ip), vehicle: saline with Tween-80 96 % of control | dose: 12.5 mg/kg/injection, schedule: Q01DX009 (ip), vehicle: saline with Tween-80 100 % of control | [1] 100 % of control | [2] 99 % of control

C[Si](C)(C)SCCS[Si](C)(C)C
inactive: [3] 98 % of control | [4] 98 % of control | [5] 95 % of control

CCN1CCC(=O)C1
inactive: dose: 50.0 mg/kg/injection, schedule: Q04DX003 (ip), vehicle: saline with Tween-80 104 % of control | dose: 100.0 mg/kg/injection, schedule: Q04DX003 (ip), vehicle: saline with Tween-80 105 % of control | dose: 200.0 mg/kg/injection, schedule: Q04DX003 (ip), vehicle: saline with Tween-80 105 % of control

COc1cc(OC)c(C2SCC(=O)N2c2nnc(C(F)(F)F)s2)cc1OC (stereo not drawn)
inactive: [6] 100 % of control | [7] 99 % of control | [8] 98 % of control

COc1ccc(Cc2cc3c(cc2OCC(=O)Nc2ncccn2)OCO3)cc1
inactive: [3] 108 % of control | [4] 88 % of control | [5] 87 % of control

C=C1C(=O)O[C@@H]2C[C@@]3(C)CCC[C@H](C)C3=C[C@H]12 (tested in a mixture with another compound)
inactive: dose: 7.5 mg/kg/injection, schedule: Q01DX005 (ip), vehicle: saline + alcohol 93 % of control | dose: 15.0 mg/kg/injection, schedule: Q01DX005 (ip), vehicle: saline + alcohol 94 % of control | dose: 30.0 mg/kg/injection, schedule: Q01DX005 (ip), vehicle: saline + alcohol 103 % of control | dose: 60.0 mg/kg/injection, schedule: Q01DX005 (ip), vehicle: saline + alcohol 100 % of control | dose: 120.0 mg/kg/injection, schedule: Q01DX005 (ip), vehicle: saline + alcohol 104 % of control

CSc1cccc(N=C(N)N)c1
inactive: dose: 50.0 mg/kg/injection, schedule: Q01DX009 (ip), vehicle: saline 100 % of control | dose: 100.0 mg/kg/injection, schedule: Q01DX009 (ip), vehicle: saline 98 % of control

COC(=O)[C@@H]1[C@@H]2O[C@@H]2[C@H]2O[C@H]2[C@H]1C(=O)O
inactive: dose: 6.25 mg/kg/injection, schedule: Q01DX001 (ip), vehicle: Klucel (hydroxypropylcellulose) (HPC) 113 % of control | dose: 12.5 mg/kg/injection, schedule: Q01DX001 (ip), vehicle: Klucel (hydroxypropylcellulose) (HPC) 103 % of control | dose: 25.0 mg/kg/injection, schedule: Q01DX001 (ip), vehicle: Klucel (hydroxypropylcellulose) (HPC) 100 % of control | dose: 50.0 mg/kg/injection, schedule: Q01DX001 (ip), vehicle: Klucel (hydroxypropylcellulose) (HPC) 99 % of control

C/C(C#N)=C/c1ccccc1
inactive: [2] 104 % of control | [9] 118 % of control

COc1ccc([N+]2=Cc3cc(OC)c(OC)cc3CC2)cc1OC
inactive: dose: 6.25 mg/kg/injection, schedule: Q01DX009 (ip), vehicle: water 115 % of control | dose: 12.5 mg/kg/injection, schedule: Q01DX009 (ip), vehicle: water 108 % of control | dose: 25.0 mg/kg/injection, schedule: Q01DX009 (ip), vehicle: water 108 % of control | dose: 50.0 mg/kg/injection, schedule: Q01DX009 (ip), vehicle: water 103 % of control and 108 % of control | dose: 100.0 mg/kg/injection, schedule: Q01DX009 (ip), vehicle: water 104 % of control and 88 % of control

CC(/C=C/c1ccc(C)cc1)=N\NC(N)=O
inactive: [3] 103 % of control | [4] 102 % of control | [5] 93 % of control

Clc1ccc(C2=NC(c3ccccc3)/C(=C/c3ccccc3)S2)cc1 (stereo not drawn)
inactive: [2] 101 % of control | [9] 98 % of control | [10] 90 % of control

COc1ccccc1CC(N)c1nn[nH]n1 (stereo not drawn)
inactive: [1] 96 % of control | [2] 98 % of control and 99 % of control and 101 % of control | [9] 104 % of control and 89 % of control and 96 % of control | [10] 91 % of control and 97 % of control | dose: 400.0 mg/kg/injection, schedule: Q01DX009 (ip), vehicle: saline with Tween-80 96 % of control

O=C(CCCl)Nc1ccccc1C(=O)CCc1cn(C(=O)CCCl)c2ccccc12
inactive: [6] 107 % of control | [7] 102 % of control | [8] 96 % of control
